Consider 2 compounds from US20030203388A1, “Method for determining genotoxicity” (Pfizer Inc., priority 2002, published 2003).

Data set [1] relates to GADD45β (X54149), GADD45 (U00937), AV138783, AI847051, AF055638, AI461837. Kind of data set: gene expression analysis (Affymetrix mouse microarray chip U74). Type of data set: cell-based. The following applies: L5178Y cells treated four hours. The procedure: Mouse lymphoma cell line L5178Y (ATCC No. CRL 9518, ATCC) were cultivated in RPMI medium (Invitrogen Life Technologies, Inc., Carlsbad, Calif.) supplemented with 10% fetal bovine serum and antibiotics penicillin and streptomycin at 37° C. Cells from exponentially growing cultures were seeded at a concentration 3×10^5 cells/ml and incubated for 24 hours and maintained below 1×10^6 cells/ml. […] After the treatment, the cells were washed in PBS (Invitrogen Life Technologies, Inc., Carlsbad, Calif.). Half of the cells where then immediately frozen and stored at −80° C. prior to gene expression analysis, as described in Example 2 below. The other half was allowed to recover in a fresh growth medium for 20 hours. Cell viability was determined based on a cell count. Cell viability results appear in FIG. 1 and FIG. 2 as a ratio between treated versus vehicle control. […]
Gene expression was measured using Affymetrix GeneChip® technology (Affymetrix, Inc., Santa Clara, Calif.) using standard protocols available from Affymetrix (see, GeneChip® Expression Analysis, Technical Manual, Rev. 2 (2001), Affymetrix, Inc., available at http://www.affymetrix.com/pdf/expression_manual.pdf). […] The hybridized chips were scanned using a Hewlett Packard GeneArray™ Scanner, (Hewlett Packard Company, Palo Alto, Calif.) and the resulting data were evaluated using Affymetrix Microarray suite software (Affymetrix). […]

The subject of the next data set is L5178Y cells. Kind of data set: in vitro micronucleus assay. The following applies: L5178Y cells treated four hours, 20 hours recovery; sodium chloride at high concentrations. Format: cell-based, mouse.

Experimental for L5178Y cells: Mouse lymphoma cell line L5178Y (ATCC No. CRL 9518, ATCC) were cultivated in RPMI medium (Invitrogen Life Technologies, Inc., Carlsbad, Calif.) supplemented with 10% fetal bovine serum and antibiotics penicillin and streptomycin at 37° C. Cells from exponentially growing cultures were seeded at a concentration 3×10^5 cells/ml and incubated for 24 hours and maintained below 1×10^6 cells/ml. […] After the treatment, the cells were washed in PBS (Invitrogen Life Technologies, Inc., Carlsbad, Calif.). […] The other half was allowed to recover in a fresh growth medium for 20 hours. Cell viability was determined based on a cell count. […] The cells were then harvested for use in the in vitro micronucleus assay of Example 3 below.
Treated cells prepared according to Example 1 were attached to glass slides by dropping them onto the glass slides using a pipette after hypotonic treatment with 75 mM KCl (Sigma-Aldrich Corp., St Louis, Mo.) and fixation with 3:1 (v/v) MeOH:acetic acid (JT Baker, Inc., Phillipsburg, N.J.). The cells were then stained using 31.25 μg/ml solution of acridine orange (Molecular Probes, Inc., Eugene, Oreg.).
Micronuclei were counted using a Axiokop 2 fluorescent microscopy (Carl Zeiss Microlmaging, Inc., Thornwood, N.Y.).

For the compound `N.N.[Cl][Pt][Cl]` [cisplatin], in data set [1], the “expression of GADD45β (X54149) and GADD45 (U00937)” value is listed as “increased expression”. Take `[Cl-].[Na+]` [sodium chloride]: in the data set with L5178Y cells, the “genotoxic stress, as demonstrated using a micronucleus assay” value is listed as “show evidence of genotoxic stress”. Further, the “level of expression of these genes (GADD45β, GADD45, AV138783, AI847051, AF055638, AI461837)” value in data set [1] is on record as “no effect”.
